Experimental data from patent publication US20240239818A1, “COMPOUNDS AND COMPOSITIONS COMPRISING FLUOROPHORES FOR USE IN VISUALIZATION AND PURIFICATION OR MANIPULATION” (priority 2022, published 2024).
Entries after “also recorded” stand apart in the source; their conditions may differ.

Legend:
Format in all cases: cell-based
[1] = molecular target: T1, msGFP-HaloTag® fusion localized to the mitochondrial outer membrane (Rhodococcus rhodochrous, UniProt P0A3G2, A155T/A167V/A172T/A224E/C128F/C176G/D78G/E160K/E257K/H272N/K175M/K195N/L47V/L88M/N227D/S58T/T264A/Y273L/Y87F)
T1 construct: expressed in transfected cells; host or cells: HEK293T, calcium phosphate transfection
Description: HEK293T labeling and fluorescence microscopy. […] For pulse-chase experiments, HEK293T cells were incubated with biotin-HaloTag® ligand (6; #G8281, Promega) at either 100 nM or 10 μM for 1 hour at 37° C. and chased with 100 nM of JANELIA FLUOR® (JF)549-HaloTag® ligand (2HTL). […] For imaging, the coverslips containing HEK293T cells were fixed with 4% paraformaldehyde in PBS at 37° C. for 10 min, washed with PBS (3×), and mounted on glass slides with ProLong Glass Antifade Mountant with NucBlue™ Stain (ThermoFisher; P36981). These cells were imaged using a Zeiss LSM 880 with Airyscan and a plan-apochromatic 63×/1.40 oil objective in Fast Airyscan mode. The same image acquisition settings were used for each trial and condition. Images were then processed with automatic Airyscan deconvolution settings.

[2] = molecular target: T2, msGFP-HaloTag® fusion protein (mitochondria) from HEK293T cells (Rhodococcus rhodochrous, UniProt P0A3G2, A155T/A167V/A172T/A224E/C128F/C176G/D78G/E160K/E257K/H272N/K175M/K195N/L47V/L88M/N227D/S58T/T264A/Y273L/Y87F); assay: Affinity capture (streptavidin microbeads) and in-gel fluorescence; settings: streptavidin beads
T2 construct: and (4) HaloTag®; expressed in transfected cells; host or cells: HEK293T, calcium phosphate transfection
Description: Affinity capture and in-gel fluorescence experiments. Affinity capture pulldown isolation experiments of biotin-labeled HaloTag® fusion proteins were performed on ice-cold isolation buffer (IB) consisting of KCl (0.18 M), ethylene glycol-bis(β-aminoethyl ether)-N,N,N′,N′-tetraacetic acid (EGTA; 1 mM), 3-(N-morpholino)propanesulfonic acid (MOPS; 5 mM); the pH was adjusted to pH=7.35 using KOH(aq).^51 HEK293T cells were scraped with 500 μL IB and homogenized using 12 strokes with a 27G syringe. The resulting homogenate was spun at 4° C. at 1000 g for 3 min to pellet large cellular debris. 50 μL of streptavidin-coated microbeads (Miltenyi, 130-048-101) were added to the supernatant and incubated for 30 min at 4° C. with slow rotation. LS columns (Miltenyi, 130-042-401) were prepared by first washing with 3 mL IB consisting of 2.5% bovine serum albumin (BSA; Jackson ImmunoResearch, 001-000-162) and then with plain IB (3×). Prior to supernatant-microbead mixture being loaded onto LS columns, 5% volume was taken for downstream total fraction calculations (i.e., the “total/20” sample). Columns and samples were kept at 4° C. (cold room) while samples were loaded onto columns and washed with IB (3×); this fraction was collected as designated as “wash”. After the washing step, the column was removed from the QuadroMACs magnet holder (Miltenyi, 130-092-857) and eluted with gentle plunge action into an Eppendorf tube; this was labeled as “eluate”. From here, there were three fractions for each condition: total/20, wash (unbound), and eluate (bound). Since mitochondria were being isolated, these samples were spun at 4° C. and 20,000 g to pellet mitochondria. These samples were then solubilized using the lysis buffer containing 1×PBS, 2% SDS, 1% Triton x-100, 10 mM EDTA, and protease inhibitors (2 mM PMSF, aprotinin, leupeptin, and pepstatin A). Samples were then incubated at 72° C. for 3-4 min after the addition of sample buffer (SB) (DTT, glycerol, and bromophenol blue). For protein detection, 10-20 μL of the sample was subjected to sodium dodecyl sulfate-polyacrylamide gel electrophoresis (SDS-PAGE), using 13% gels. The affinity capture pulldown efficiency was monitored using in-gel fluorescence. The msGFP signal from HaloTag®-TEV-4×GS-msGFP-mito after cell lysis and SDS-PAGE was analyzed, in-gel, using a BioRad Chemidoc MP imager (BioRad) through GFP fluorescence excitation and emission filters. Data were quantified by densitometry using Fiji.^52 Capture efficiency was calculated using equation 3:
[formula] • where Ieluate is the in-gel fluorescence intensity of the bead-bound fraction and Itotal/20 is the in-gel fluorescence intensity of the 5% of crude sample reserved for concentration control (i.e., the “total/20” sample).
Evaluation of biotin-HaloTag® ligand. A live cell permeable biotin reagent was saught for affinity pulldown of HaloTag® fusion proteins, given the broad utility of biotin conjugates in biochemistry and cell biology. To evaluate the performance of biotin-containing HaloTag® ligand, an assay was developed (FIG. 3A) where the HaloTag® is expressed as a fusion with monomeric superfolder green fluorescent protein (msGFP); the construct also included an OMP25 sequence to localize the fusion protein to the outer mitochondrial membrane, allowing straightforward imaging and affinity capture experiments.^28-29 HEK293T cells expressing this fusion protein were incubated with biotin-containing HaloTag® ligands followed by washing and cell lysis. The crude supernatant was incubated with streptavidin-coated magnetic microbeads, applied to a magnetic column, and washed. The magnet was removed, and the bead-bound mitochondria were eluted, lysed, and the resulting solution was analyzed by sodium dodecyl sulfate-polyacrylamide gel electrophoresis (SDS-PAGE) and in-gel fluorescence. To minimize dilution of the sample only the initial bead-bound fraction was collected, leaving some material on the column. […]

BRD4 [3] = molecular target: T3, BRD4 (Homo sapiens, UniProt O60885); assay: BRD4 recruitment to coilin-HaloTag® in live N2a cells (no wash lattice lightsheet microscopy); settings: 100 nM
T3 construct: expressed in transfected cells; host or cells: N2a cells, transient transfection
Description: (§1) Live cell protein imaging and manipulation using JQ1-rhodamine-HaloTag® ligand. The ability of JQ1 ligands to recruit BET family protein BRD4 to HaloTag® fusion proteins at distinct genomic regions in N2a cells was then tested (FIG. 13A). N2a cells are neural progenitor cells that are frequently utilized to study neuronal differentiation and axonal growth. […] N2a cells were transiently transfected with plasmids encoding the HaloTag® protein fused to the following nuclear proteins: (1) constitutive heterochromatin marker heterochromatin protein 1 (HP1); (2) Cajal body component coilin; and (3) centromere localized histone H3 variant centromere protein A (CENP-A). These three proteins have a very distinct distribution in the nucleus than BRD4 which generally has an euchromatic distribution. Localization of BRD4 to specific gene loci can induce gene expression. […]
(§2) Initially, a side-by-side comparison of JF646 based 17 and JF635 based 18 was performed for recruiting BRD4 to coilin-HaloTag® under a “no wash” lattice lightsheet fluorescence microscopy setup. […] Advantageously, 18 also has lower absorptivity and negligible fluorescence quantum yield before HaloTag® conjugation. “No wash” imaging was performed and the fluorescence from JF635 and sfGFP were monitored. […] The […] HP1-HaloTag® labeled with either JF635-HaloTag® ligand (5HTL) or the JQ1 analog 18 were quantified (FIG. 13J).

BRD4 [4] = molecular target: T3, BRD4; assay: BRD4 recruitment to HP1-HaloTag® in live N2a cells (no wash lattice lightsheet microscopy); settings: 100 nM
Description: as §1, §2

T1 sequence (P0A3G2 other isoform, or with tags, fused parts or gaps with the stated changes): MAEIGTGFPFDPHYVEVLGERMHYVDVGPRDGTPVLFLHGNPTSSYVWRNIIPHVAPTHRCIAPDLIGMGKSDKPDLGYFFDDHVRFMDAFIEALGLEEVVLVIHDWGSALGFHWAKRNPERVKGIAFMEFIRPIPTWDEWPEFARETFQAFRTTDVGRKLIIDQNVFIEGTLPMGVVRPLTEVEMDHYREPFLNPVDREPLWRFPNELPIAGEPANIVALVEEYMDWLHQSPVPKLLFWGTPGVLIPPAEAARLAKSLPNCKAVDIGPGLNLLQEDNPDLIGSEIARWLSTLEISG
T2 sequence (P0A3G2 other isoform, or with tags, fused parts or gaps with the stated changes): as above

| Structure (SMILES) | labeling of HaloTag®-msGFP fusion by pulse-chase (JF549/msGFP ratio after 2HTL chase) ([1]; HEK293T, 10 μM (μM concentrations), 1 h pulse) | labeling of HaloTag®-msGFP fusion by pulse-chase ([1]; HEK293T, nanomolar concentration (100 nM)) | concentration required to achieve cellular labeling ([1]; live cells) [µM] | affinity capture (protein bound to streptavidin) [2] | BRD4 recruitment to coilin-HaloTag® (BRD4 [3]) | BRD4 localization to HP1-HaloTag® (BRD4 [4]) |
| --- | --- | --- | --- | --- | --- | --- |
| O=C(CCCC[C@@H]1SC[C@@H]2NC(=O)N[C@@H]21)NCCOCCOCCCCCCCl [compound 6, biotin-HaloTag® ligand] | substantially reduced JF549/msGFP ratio; also recorded: labels the HaloTag®-msGFP fusion in living cells; also recorded: substantially labeled the HaloTag® protein fusion | poor labeling | 10 | prevents purification of HaloTag®-expressing mitochondria; also recorded: no appreciable affinity capture | – | – |
| Cc1sc2c(c1C)C(c1ccc(Cl)cc1)=N[C@H](CC(=O)NCCCCOCCOCCNC(=O)C1(F)C[N+](=C3C=CC4=C(c5cc(C(=O)NCCOCCOCCCCCCCl)ccc5C(=O)[O-])c5ccc(N6CC(F)C6)cc5[Si](C)(C)C4=C3)C1)c1nnc(C)n1-2 (stereo partly drawn) [compound 19, (−)-JQ1-JF635-HaloTag® ligand] | – | – | – | – | did not result in BRD4 localization | did not result in BRD4 localization |
